Where two headings read alike, the source gives them in different places. Values belong to the compound of their own block, whether it stands above or below them.
Experiments:
[1] = molecular target: T1, FATP4 (Homo sapiens, UniProt Q6P1M0); test: Competition of Bodipy-FA uptake by FATP4 expressing cells (FACS); assay type: cell-based; details: for inhibition at 100 µM: read-out: Competition (inhibition of Bodipy-FA uptake)
T1 construct: expressed in transfected cells; host or cells: 293 cells (human kidney), stably transfected with pIRES-neo-hsFATP4, G418-selected
T1 sequence (Q6P1M0 whole entry): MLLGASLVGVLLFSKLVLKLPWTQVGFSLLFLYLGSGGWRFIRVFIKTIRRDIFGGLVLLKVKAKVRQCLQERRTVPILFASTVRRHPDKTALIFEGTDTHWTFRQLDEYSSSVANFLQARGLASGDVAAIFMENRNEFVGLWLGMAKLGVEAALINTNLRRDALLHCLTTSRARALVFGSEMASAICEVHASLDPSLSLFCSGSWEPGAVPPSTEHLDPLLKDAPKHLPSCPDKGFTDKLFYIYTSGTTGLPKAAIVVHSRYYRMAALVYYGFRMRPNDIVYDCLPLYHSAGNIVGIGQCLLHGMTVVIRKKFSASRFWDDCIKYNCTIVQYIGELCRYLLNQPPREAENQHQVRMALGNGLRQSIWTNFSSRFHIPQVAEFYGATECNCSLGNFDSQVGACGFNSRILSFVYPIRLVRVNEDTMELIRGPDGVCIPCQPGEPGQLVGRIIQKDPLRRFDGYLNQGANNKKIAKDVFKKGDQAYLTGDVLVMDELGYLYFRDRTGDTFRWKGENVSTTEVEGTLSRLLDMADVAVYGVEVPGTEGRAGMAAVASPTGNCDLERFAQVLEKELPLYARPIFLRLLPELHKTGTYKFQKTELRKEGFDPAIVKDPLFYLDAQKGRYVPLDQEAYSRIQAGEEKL
Protocol: Bodipy-FA uptake assays using FACS were performed, adapted to a 96-well format. LCFA uptake assays with enterocytes or with stably transfected 293 cells were done as follows. Mixed micelles of radiolabeled FA (NEN) and taurocholate (Sigma) in HBS were generated by brief sonication at 37° C. […] Final taurocholate concentration was 5 mM. Cells were incubated for the indicated amount of time at 37° C. The assay was stopped by transferring the cells onto filter paper followed by extensive washes with ice-cold HBS containing 0.1% BSA using a cell harvester (Brandell). Incorporated oleate was then determined by β-scintillation counting (Beckman).

[2] = system: 293 cells; test: Uptake of radiolabeled substrates by control (vector) 293 cells; assay type: cell-based, human; details: 10 μM substrate in HBS with 5 mM taurocholate; rate over 4 min
Protocol: (§1) Several of the cell lines with the highest amount of Bodipy-FA uptake as well as isolated primary enterocytes were used to measure the uptake of radiolabeled FAs.
(§2) Bodipy-FA uptake assays using FACS were performed, adapted to a 96-well format. LCFA uptake assays with enterocytes or with stably transfected 293 cells were done as follows. Mixed micelles of radiolabeled FA (NEN) and taurocholate (Sigma) in HBS were generated by brief sonication at 37° C. Equal volumes of cells and micelle solution were mixed, resulting in a final FA concentration of 25 μM for antisense assays and 10 μM for substrate specificity assays. Final taurocholate concentration was 5 mM. Cells were incubated for the indicated amount of time at 37° C. The assay was stopped by transferring the cells onto filter paper followed by extensive washes with ice-cold HBS containing 0.1% BSA using a cell harvester (Brandell). Incorporated oleate was then determined by β-scintillation counting (Beckman).

[3] = system: enterocytes; test: Uptake of radiolabeled substrates by isolated primary enterocytes; assay type: cell-based, mouse; details: for Uptake, Enterocytes: 10 μM substrate in HBS with 5 mM taurocholate, rate over 4 min; for Transport of the substrate by isolated primary enterocytes (in words): compared with transfected 293 cells
Protocol: as §1, §2

[4] = molecular target: T2, hsFATP4 (Homo sapiens, UniProt Q6P1M0); test: Uptake of radiolabeled substrates by 293 cells stably expressing FATP4; assay type: cell-based; details: for Uptake, 293 Cells Stably Expressing FATP4: 10 μM substrate in HBS with 5 mM taurocholate, rate over 4 min; for Uptake, FATP4 specific: FATP4-expressing minus control 293 cells, 10 μM substrate, 5 mM taurocholate; for Effect of hsFATP4 expression on uptake of the substrate (in words): stably transfected 293 cells vs vector
T2 construct: expressed in transfected cells; host or cells: 293 cells (human kidney), stably transfected with pIRES-neo-hsFATP4, G418-selected
T2 sequence (Q6P1M0 whole entry): as above
Protocol: Using a mammalian expression vector, we generated 40 stable […] cell lines expressing hsFATP4 and 20 cell lines transfected with a control plasmid.
as §1, §2

[5] = system: FATP4 mRNA; test: Oleate uptake by isolated mouse enterocytes after incubation with FATP4 oligonucleotides; assay type: cell-based; details: 100 μM oligonucleotide; for Inhibition of fatty acid (oleate) uptake over time: 48 h, 25 μM oleate, FIG. 40
[6] = system: enterocytes; test: 35S-methionine uptake by cultured enterocytes after oligonucleotide treatment (specificity control); assay type: cell-based, mouse; details: 100 μM oligonucleotide, 48 h; FIG. 42
Protocol: As a further control experiment, the uptake of oleate was measured along with the uptake of methionine in the same cultured enterocytes. Antisense oligonucleotide, mismatch sequence oligonucleotide, or no oligonucleotide was added to a concentration of 100 μM to cultures of enterocytes. After incubation for 48 hours, the uptake of both ^3H-labeled oleate and ^35S-labeled methionine was assayed. Fatty acid uptake is at the left side of the paired bars; methionine uptake is on the right side of the paired bars.

[7] = 5 μM Bodipy-FA, 100 μM competitor (20-fold molar excess), 100% = effect of 200 μM lauric acid

Compound: CC1=C(C/C=C(\C)CCC[C@H](C)CCC[C@H](C)CCCC(C)C)C(=O)c2ccccc2C1=O [3-Phytylamenadione (Vitamin K1), 3-Phytylamenadione]
Competition (inhibition of Bodipy-FA uptake) [1, 7]: − (0%-30% inhibition by the indicated substance)

inhibition at 100 µM [1, 7]: 70 to 100%
Compound: CCCCCCCCCCCCCCCCCCCC(=O)O [Arachidic Acid]

Compound: CCCCC/C=C\C/C=C\C/C=C\C/C=C\CCCC(=O)O [Arachidonate]
Uptake, 293 Cells Control [2]: 3 pmol/min 10^6 cells
Uptake, Enterocytes [3]: 0 pmol/min 10^6 cells

Compound: CCCC(=O)O [Butyrate, Butyric Acid]
Uptake, 293 Cells Control [2]: 0 pmol/min 10^6 cells
Uptake, Enterocytes [3]: 73 pmol/min 10^6 cells
Transport of the substrate by isolated primary enterocytes (in words) [3]: absence of transport

inhibition at 100 µM [1, 7]: 70 to 100%
Compound: CCCCCCCCCC(=O)O [Capric Acid]

Compound: CCCCCC(=O)O [Caproic Acid]
inhibition at 100 µM [1]: 0 to 30%

inhibition at 100 µM [1, 7]: 70 to 100%
Compound: CCCCCCCCCCCCCCCCCCCCCCCCCC(=O)O [Cerotic Acid]

Uptake, 293 Cells Stably Expressing FATP4 [4]: 345 pmol/min 10^6 cells
Uptake, FATP4 specific [4]: 26 pmol/min 10^6 cells
Effect of hsFATP4 expression on uptake of the substrate (in words) [4]: not
Compound: CC(C)CCC[C@@H](C)[C@H]1CC[C@H]2[C@@H]3CC=C4C[C@@H](O)CC[C@]4(C)[C@H]3CC[C@]12C [Cholesterol]
Uptake, 293 Cells Control [2]: 319 pmol/min 10^6 cells
Uptake, Enterocytes [3]: 531 pmol/min 10^6 cells
Transport of the substrate by isolated primary enterocytes (in words) [3]: more robust transport

Compound: CCCCCCCC/C=C\CCCCCCCC(=O)O[C@H]1CC[C@@]2(C)C(=CC[C@H]3[C@@H]4CC[C@H]([C@H](C)CCCC(C)C)[C@@]4(C)CC[C@@H]32)C1 [Cholesteryl Oleate]
Competition (inhibition of Bodipy-FA uptake) [1, 7]: − (0%-30% inhibition by the indicated substance)

Compound: CCCCCCCCCCCCCCCCCCCCCCCC(=O)O [Lignoceric Acid]
inhibition at 100 µM [1]: 70 to 100%

Uptake, 293 Cells Stably Expressing FATP4 [4]: 673 pmol/min 10^6 cells
Uptake, FATP4 specific [4]: 33 pmol/min 10^6 cells
Effect of hsFATP4 expression on uptake of the substrate (in words) [4]: not
inhibition at 100 µM [1, 7]: 70 to 100%
Compound: CCCCC/C=C\C/C=C\CCCCCCCC(=O)O [Linolate, Linoleic Acid]
Uptake, 293 Cells Control [2]: 640 pmol/min 10^6 cells
Uptake, Enterocytes [3]: 116 pmol/min 10^6 cells
Transport of the substrate by isolated primary enterocytes (in words) [3]: more robust transport

Compound: CCCCCCCCCCCCCC(=O)O [Myristic Acid]
inhibition at 100 µM [1]: 70 to 100%

Compound: CCCCCCCC(=O)O [Octanoate, Caprylic Acid]
Uptake, 293 Cells Control [2]: 0 pmol/min 10^6 cells
Uptake, 293 Cells Stably Expressing FATP4 [4]: 0 pmol/min 10^6 cells
Uptake, FATP4 specific [4]: 0 pmol/min 10^6 cells
Effect of hsFATP4 expression on uptake of the substrate (in words) [4]: not
Uptake, Enterocytes [3]: 5 pmol/min 10^6 cells
Transport of the substrate by isolated primary enterocytes (in words) [3]: absence of transport
inhibition at 100 µM [1]: 0 to 30%

Compound: CCCCCCCC/C=C\CCCCCCCC(=O)O [Oleate, Oleic Acid]
Uptake, 293 Cells Control [2]: 662 pmol/min 10^6 cells
Uptake, 293 Cells Stably Expressing FATP4 [4]: 1122 pmol/min 10^6 cells
Uptake, FATP4 specific [4]: 459 pmol/min 10^6 cells
Effect of hsFATP4 expression on uptake of the substrate (in words) [4]: accelerated the uptake
Uptake, Enterocytes [3]: 117 pmol/min 10^6 cells
Transport of the substrate by isolated primary enterocytes (in words) [3]: preference
Competition (inhibition of Bodipy-FA uptake) [1, 7]: ++ (70%-100% inhibition)

inhibition at 100 µM [1, 7]: 0 to 30%
Compound: CCCCCCCC/C=C\CCCCCCCC(=O)OCC [Oleic Acid Ethyl Ester]

Compound: CCCCCCCC/C=C\CCCCCCCCOC(=O)CCCCCCC/C=C\CCCCCCCC [Oleic Acid Oley Ester]
Competition (inhibition of Bodipy-FA uptake) [1, 7]: − (0%-30% inhibition by the indicated substance)

inhibition at 100 µM [1, 7]: 0 to 30%
Compound: CCCCCCCC/C=C\CCCCCCCC(=O)SCCNC(=O)CCNC(=O)[C@H](O)C(C)(C)COP(=O)(O)OP(=O)(O)OC[C@H]1O[C@@H](n2cnc3c(N)ncnc32)[C@H](O)[C@@H]1OP(=O)(O)O [Oleoyl CoA]

Uptake, 293 Cells Stably Expressing FATP4 [4]: 1695 pmol/min 10^6 cells
Uptake, FATP4 specific [4]: 1131 pmol/min 10^6 cells
Enhancement of rate of uptake by hsFATP4 expression over 293 cells transfected with vector alone ([4]; stably transfected 293 cells, FIG. 97): approximately 3 fold
inhibition at 100 µM [1, 7]: 70 to 100%
Compound: CCCCCCCCCCCCCCCC(=O)O [Palmitate, Palmitic Acid]
Uptake, 293 Cells Control [2]: 564 pmol/min 10^6 cells
Uptake, Enterocytes [3]: 3036 pmol/min 10^6 cells
Transport of the substrate by isolated primary enterocytes (in words) [3]: preference

inhibition at 100 µM [1, 7]: 0 to 30%
Compound: CCCCCCCCCCCCCCCC(=O)OC [Palmitic Acid Methyl Ester]

Compound: CCCCC[C@H](O)/C=C/[C@H]1[C@H](O)CC(=O)[C@@H]1C/C=C\CCCC(=O)O [Prostaglandin E2]
Competition (inhibition of Bodipy-FA uptake) [1, 7]: − (0%-30% inhibition by the indicated substance)

inhibition at 100 µM [1, 7]: 30 to 50%
Compound: CC1=C(/C=C/C(C)=C/C=C/C(C)=C/C(=O)O)C(C)(C)CCC1 [Retinoic Acid (Pro-Vitamin A), Retinoic Acid]

Compound: CCCCCCCCCCCCCCCCCC(=O)OC [Stearic Acid Methyl Ester]
inhibition at 100 µM [1]: 0 to 30%

inhibition at 100 µM [1, 7]: 50 to 70%
Compound: CCCCCCCCCCCCCCCCCC(=O)O [Stearic Acid]

Compound: Ergocalciferol [Ergocalciferol (Vitamin D2)]
Competition (inhibition of Bodipy-FA uptake) [1, 7]: − (0%-30% inhibition by the indicated substance)

Compound: FATP4-AS2: Antisense oligo CCCCCACCAGAGAGGCTCC (SEQ ID NO:103), complementary to nucleotides 10 to 28 of the mouse FATP4 coding sequence (chemistry not given here)
Inhibition of fatty acid (oleate) uptake over time [5]: ~50%
Inhibition of oleate uptake over a 5 minute interval ([5]; 48 h incubation, FIG. 41): ~50%
Methionine (amino acid) uptake [6]: not influenced

Compound: FATP4-S2: Sense control oligo GGAGCCTCTCTGGTGGGGG (SEQ ID NO:105) (chemistry not given here)
Inhibition of fatty acid (oleate) uptake over time [5]: did not significantly influence the uptake

Compound: Tocopherol [Tocopherol (Vitamin E)]
Competition (inhibition of Bodipy-FA uptake) [1, 7]: − (0%-30% inhibition by the indicated substance)

Source: patent US7033772B1, “Methods of identifying inhibitors of fatty acid transport proteins (FATP)” (Millennium Pharmaceuticals, Inc., priority 1998, dated 2006)
